According to patent US5077288A, “4-fluorobenzoic compounds with 5-HT2 - and α1 -antagonistic activities” (Adir et Compagnie, priority 1989, dated 1991):
Counter-ions that a name gives are not always drawn. Like-named read-outs stand apart in the source and are kept apart here.

How the values were obtained:
[1] = target: T1, 5-HT2 (Rattus norvegicus, UniProt P14842); assay: 5-HT2 antagonism: inhibition of hypertensive response to 5-hydroxytryptamine; type: in vivo, rat (male Sprague-Dawley); settings: iv, 10 min, i.v., cumulative doses, 5-hydroxytryptamine 100 μg/kg i.v., prazosin pretreatment, read-out: ID50, dose inhibiting the hypertensive response by 50%
T1 construct: from tissue; host or cells: whole anaesthetised male Sprague-Dawley rat in vivo (vasculature; arterial blood pressure recorded)
T1 sequence (P14842 whole entry): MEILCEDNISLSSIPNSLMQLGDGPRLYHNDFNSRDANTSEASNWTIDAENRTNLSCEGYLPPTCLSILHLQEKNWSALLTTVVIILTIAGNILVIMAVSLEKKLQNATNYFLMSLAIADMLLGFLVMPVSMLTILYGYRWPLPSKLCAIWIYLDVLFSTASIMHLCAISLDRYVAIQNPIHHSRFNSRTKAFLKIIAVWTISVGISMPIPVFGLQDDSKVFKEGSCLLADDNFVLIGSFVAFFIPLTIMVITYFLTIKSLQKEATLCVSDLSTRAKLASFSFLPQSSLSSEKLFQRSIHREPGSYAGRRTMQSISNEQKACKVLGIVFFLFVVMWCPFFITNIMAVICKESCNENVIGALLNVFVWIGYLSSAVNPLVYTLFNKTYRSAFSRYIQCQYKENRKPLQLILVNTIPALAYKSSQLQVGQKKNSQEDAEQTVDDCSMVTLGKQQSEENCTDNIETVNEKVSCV
Procedure: Male Sprague-Dawley rats (350-400 g) are anesthetized i.p. with pentobarbital (45 mg/kg). The trachea is cannulated and the animals are subjected to artificial respiration. The vagus nerves are sectioned. A catheter is placed in a carotid artery to record the arterial blood pressure. A second catheter is placed in the vein of the penis and is used for the injections. The animals' temperature is taken and is maintained at 37° C. The rats are pretreated with d-tubocurarine (1 mg/kg i.v.) an prazosin (1 mg/kg i.v.). 5-Hydroxytryptamine is injected i.v. at a dose of 100 μg/kg twice, separated by an interval of 10 minutes, so as to determine the rise in the systolic arterial blood pressure of each rat 10 minutes later, the compounds of the invention are injected at the lowest dose and injection of 5-hydroxytryptamine is performed again 10 minutes later. 3 or 4 cumulative doses of the compounds of the invention are tested in the same manner. The percentages of the hypertensive response which are obtained at the different doses are calculated in order to determine the ID50, the dose inhibiting the hypertensive response by 50%.

[2] = test system: 5-HTP; assay: 5-HTP antagonism: forepaw treading, flat body posture and head twitches induced by 5-hydroxytryptophan; type: in vivo, rat (female Wistar); settings: Rattus norvegicus
Procedure: 4 Female Wistar rats (270±30 g), fasted for approximately 24 hours, are used. At the beginning of the test, they are administered the "control" solution or solutions of 5-hydroxytryptophan at a dose of 320 mg/kg. The animals are then placed under observation in transparent cages. Three parameters are assessed in the study: "forepaw treading", "flat body posture" and "head twitches". "Forepaw treading" corresponds to a pedalling motion of the forelimbs. This parameter is measured 80 minutes after the administration of 1,5-hydroxytryptophan and during a ten-minute observation period. This time is divided into 5- second periods and, if a movement is observed in this period, a score of 1 is assigned, the maximum score being […] for the ten minutes of observation and for each animal. The parameter "head twitches" relates to the number of twitches of the head of the animals observed during 10 minutes. This parameter is assessed 90 minutes after the administration of 1,5-hydroxytryptophan and during a 10- minute period. "Flat body posture" corresponds to a flattening of the body which lasts for more than 10 minutes. This parameter is assessed throughout the period of observation of the animals.

[3] = test system: α1 receptor; settings: in words; cited from earlier work
[4] = sc, read-out: ED50 HT (head twitches)
[5] = sc, subcutaneously, 5-hydroxytryptophan 320 mg/kg, Table IV, read-out: ED50 FBP (flat body posture)
[6] = sc, subcutaneously, 5-hydroxytryptophan 320 mg/kg, Table IV, read-out: ED50 FPT (forepaw treading)

Structure (SMILES)	ED50 [1] [mg/kg]	ED50 [2, 4] [mg/kg]	ED50 [2, 5] [mg/kg]	ED50 [2, 6] [mg/kg]	ED50 ([2]; read-out: ED50 HT (head twitches)) [mg/kg]	ED50 ([2]; Table V, route not given, 5-hydroxytryptophan 320 mg/kg, read-out: ED50 FBP (flat body posture)) [mg/kg]	ED50 ([2]; Table V, route not given, 5-hydroxytryptophan 320 mg/kg, read-out: ED50 FPT (forepaw treading)) [mg/kg]	α1 antagonist activity [3]
Cc1nc2c(C#N)ncn2c(O)c1CCN1CCC(C(=O)c2ccc(F)cc2)CC1 [EXAMPLE 1, 8-Cyano-3-{2-[4-(4-fluorobenzoyl)piperidino]ethyl}-4-hydroxy-2-methylimidazo[l,5-a]pyrimidine hydrochloride]	0.0045	> 40	0.04	40				
Cl.O=C(c1ccc(F)cc1)C1CCN(CCCN2C(=O)CN(Cc3ccccc3F)CC2=O)CC1 [EXAMPLE 2, 1-{3-[4-(4-Fluorobenzoyl)piperidino]propyl}-4-(2-fluorobenzyl) piperazine 2,6-dione hydrochloride]	0.014	5	0.31	10				
Cl.O=C(c1ccc(F)cc1)C1CCN(CCCN2C(=O)CN(Cc3ccccn3)CC2=O)CC1 [EXAMPLE 3, 1-{3-[4-(4-Fluorobenzoyl)piperidino]propyl}-4-(2-pyridylmethyl) piperazine 2,6-dione hydrochloride]		5	0.31	1.25				
Cl.O=C(c1ccc(F)cc1)C1CCN(CCCCN2C(=O)CN(Cc3ccccc3F)CC2=O)CC1 [EXAMPLE 4, 1-{4-[4-(4-Fluorobenzoyl)piperidino]butyl}-4-(2-fluorobenzyl) piperazine 2,6-dione hydrochloride]			10	5				
O=C(CC1CCN(CCCN2C(=O)CN(Cc3ccccc3F)CC2=O)C1)c1ccc(F)cc1.O=C(O)C(O)C(O)C(=O)O (stereo not shown) [EXAMPLE 5, 4-(2-Fluorobenzyl)-1-{3-[3-(4-fluorophenacyl)-1-pyrrolidinyl]propyl}piperazine 2,6-dione tartrate]		> 10	0.31	10				
O=C(CC1CCCN(CCCN2C(=O)CN(Cc3ccccc3F)CC2=O)C1)c1ccc(F)cc1 (stereo not shown) [EXAMPLE 6, 4-(2-Fluorobenzyl)-1-{3-[3-4-fluorophenacyl)piperidino]propyl)}piperazine 2,6-dione ditartrate]	0.0037		1.25	2.5				
Cl.Cl.O=C(c1ccc(F)cc1)C1CCN(CCCN2CCN(c3ncccn3)CC2)CC1 [EXAMPLE 7, 1-{3-[4-(4-Fluorobenzoyl)piperidino]propyl}-4-(2-pyrimidinyl) -piperazine dihydrochloride]		> 10	1.25	1.25				
Cc1nc2c(C(N)=O)ncn2c(O)c1CCN1CCC(C(=O)c2ccc(F)cc2)CC1 [EXAMPLE 8, 8-Carbamoyl-3-{2-[4-(4-fluorobenzoyl)piperidino]-ethyl}-4-hydroxy-2-methylimidazol[1,5-a]pyrimidine hydrochloride]	0.018				> 10	0.63	10	
Cc1nc2c(C(N)=O)ncn2c(O)c1CCN1CCC(CC(=O)c2ccc(F)cc2)C1.Cl (stereo not shown) [EXAMPLE 9, 8-Carbamoyl-3-{2-[3-(4-fluorophenacyl)-1-pyrrolidinyl]ethyl}-4-hydroxy-2-methylimidazo[1,5-a]pyrimidine hydrochloride]	0.01							
O=C(CC1CCN(CCn2c(=O)[nH]c3ccccc3c2=O)C1)c1ccc(F)cc1 (stereo not shown) [EXAMPLE 10, 2,4-Dioxo-3-{2-[3-(4-fluorophenacyl)-1-pyrrolidinyl]ethyl}-1,2,3,4-tetrahydrocuinazoline hydrochloride]	0.0054	2.5	0.16	0.31				
Cc1cccc(CN2CC(=O)N(CCCN3CCC(C(=O)c4ccc(F)cc4)CC3)C(=O)C2)c1.Cl [EXAMPLE 15, 1-{3-[4-(4-Fluorobenzoyl)piperidino]propyl}-4-(3-methylbenzyl) piperazine 2,6-dione hydrochloride]		5	2.5	10				
COc1cccc(CN2CC(=O)N(CCCN3CCC(C(=O)c4ccc(F)cc4)CC3)C(=O)C2)c1.Cl [EXAMPLE 18, 1-{3-[4-(4-Fluorobenzoyl)piperidino]propyl}-4-(3-methoxybenzyl) piperazine 2,6-dione hydrochloride]			2.5	5				
Cl.Cl.O=C(c1ccc(F)cc1)C1CCN(CCN2CCN(c3ncccn3)CC2)CC1 [EXAMPLE 21, 4-{2-[4-(4-Fluorobenzoyl)piperidino]ethyl}-1-(2-pyrimidinyl) piperazine dihydrochloride]		1.25	0.63	2.5				
O=C(c1ccc(F)cc1)C1CCN(CCn2c(=O)[nH]c3ccccc3c2=O)CC1 [KETANSERIN]								devoid of α1 antagonist activity
